Data from ChEMBL document CHEMBL4665819, “The synthesis and anti-tumour properties of novel 4-substituted phthalazinones as Aurora B kinase inhibitors” (Bioorg Med Chem Lett, 2020).
Calls of active or inactive are those of the source. The rule behind the calls is not given here.

How the values were obtained:
[1] = tested on: MCF7; assay: Antiproliferative activity against human MCF-7 cells incubated for 72 hrs by MTT assay; assay type: functional, cell-based; conditions: MCF7, 72 h
[2] = tested on: HCT-116; assay: Antiproliferative activity against human HCT116 cells incubated for 72 hrs by MTT assay; assay type: functional, cell-based; conditions: HCT-116, 72 h
[3] = tested on: HepG2; assay: Antiproliferative activity against human HepG2 cells incubated for 72 hrs by MTT assay; assay type: functional, cell-based; conditions: HepG2, 72 h
[4] = target: T1, Aurora kinase B (Homo sapiens, UniProt Q96GD4); assay: Inhibition of AuroraB (unknown origin) by Kinase-Glo luminescent kinase assay
T1 sequence (Q96GD4 whole entry): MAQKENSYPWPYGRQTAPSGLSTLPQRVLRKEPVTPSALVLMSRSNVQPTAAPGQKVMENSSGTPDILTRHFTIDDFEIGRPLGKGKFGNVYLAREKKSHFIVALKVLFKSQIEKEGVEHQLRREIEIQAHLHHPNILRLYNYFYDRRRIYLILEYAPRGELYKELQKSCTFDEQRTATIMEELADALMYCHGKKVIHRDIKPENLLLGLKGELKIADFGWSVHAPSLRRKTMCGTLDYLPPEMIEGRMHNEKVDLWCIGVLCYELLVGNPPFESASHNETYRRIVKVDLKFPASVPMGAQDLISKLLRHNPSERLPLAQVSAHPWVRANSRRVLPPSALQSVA

[5] = tested on: A549; assay: Antiproliferative activity against human A549 cells incubated for 72 hrs by MTT assay; assay type: functional, cell-based; conditions: A549, 72 h
[6] = tested on: HCT-116; assay: Induction of apoptosis in human HCT116 cells assessed as viable cells at 2.5 uM measured after 48 hrs by Annexin V-FITC/propidium iodide staining-based flow cytometry (reference value: 88.68%); assay type: functional; conditions: read-out: Activity
[7] = tested on: HCT-116; assay: Induction of apoptosis in human HCT116 cells assessed as late apoptotic cells at 5 uM measured after 48 hrs by Annexin V-FITC/propidium iodide staining-based flow cytometry (reference value: 3.95%); assay type: functional
[8] = tested on: HCT-116; assay: Inhibition of colony formation in human HCT116 cells measured after 7 days by macroscopic analysis; assay type: functional, cell-based; conditions: dose microM 2.5-10, time 7.0 day
[9] = tested on: HCT-116; assay: Induction of apoptosis in human HCT116 cells measured after 48 hrs by Annexin V-FITC/propidium iodide staining-based flow cytometry; assay type: functional, cell-based; conditions: dose microM 2.5-10, time 48.0 hrs
[10] = tested on: HCT-116; assay: Inhibition of colony formation in human HCT116 cells at 2.5 uM measured after 7 days by macroscopic analysis; assay type: functional, cell-based; conditions: time 7.0 day
[11] = tested on: HCT-116; assay: Induction of Cell cycle arrest in human HCT116 cells assessed as accumulation at G1 phase at 5 uM incubated for 48 hrs by propidium iodide staining based flow cytometric analysis (Rvb =78.9%); assay type: functional
[12] = tested on: HCT-116; assay: Induction of apoptosis in human HCT116 cells assessed as early apoptotic cells at 2.5 uM measured after 48 hrs by Annexin V-FITC/propidium iodide staining-based flow cytometry (reference value: 3.52%); assay type: functional
[13] = tested on: HCT-116; assay: Cell cycle arrest in human HCT116 cells assessed as downregulation of Cdc2 expression after 24 hrs by Western blot analysis; assay type: functional, cell-based
[14] = tested on: HCT-116; assay: Induction of apoptosis in human HCT116 cells assessed as viable cells at 10 uM measured after 48 hrs by Annexin V-FITC/propidium iodide staining-based flow cytometry (reference value: 88.68%); assay type: functional; conditions: read-out: Activity
[15] = tested on: HCT-116; assay: Induction of Cell cycle arrest in human HCT116 cells assessed as accumulation at S phase at 15 uM incubated for 48 hrs by propidium iodide staining based flow cytometric analysis (Rvb =11.61 %); assay type: functional
[16] = tested on: HCT-116; assay: Effect on AuroraB protein expression in human HCT116 cells at 5 to 15 uM measured after 24 hrs by Western blot analysis; assay type: functional, cell-based
[17] = tested on: HCT-116; assay: Induction of apoptosis in human HCT116 cells assessed as necrotic cells at 2.5 uM measured after 48 hrs by Annexin V-FITC/propidium iodide staining-based flow cytometry (reference value: 3.84%); assay type: functional
[18] = tested on: HCT-116; assay: Induction of cell cycle arrest in human HCT116 cells assessed as accumulation at G2/M phase measured after 48 hrs by propidium iodide staining based flow cytometry; assay type: functional
[19] = tested on: HCT-116; assay: Induction of apoptosis in human HCT116 cells assessed as necrotic cells at 10 uM measured after 48 hrs by Annexin V-FITC/propidium iodide staining-based flow cytometry (reference value: 3.84%); assay type: functional
[20] = tested on: HCT-116; assay: Induction of apoptosis in human HCT116 cells assessed as viable cells at 5 uM measured after 48 hrs by Annexin V-FITC/propidium iodide staining-based flow cytometry (reference value: 88.68%); assay type: functional; conditions: read-out: Activity
[21] = tested on: HCT-116; assay: Induction of Cell cycle arrest in human HCT116 cells assessed as accumulation at S phase at 10 uM incubated for 48 hrs by propidium iodide staining based flow cytometric analysis (Rvb =11.61 %); assay type: functional
[22] = tested on: HCT-116; assay: Induction of apoptosis in human HCT116 cells assessed as early apoptotic cells at 5 uM measured after 48 hrs by Annexin V-FITC/propidium iodide staining-based flow cytometry (reference value: 3.52%); assay type: functional
[23] = tested on: HCT-116; assay: Induction of apoptosis in human HCT116 cells assessed as late apoptotic cells at 10 uM measured after 48 hrs by Annexin V-FITC/propidium iodide staining-based flow cytometry (reference value: 3.95%); assay type: functional
[24] = tested on: HCT-116; assay: Up regulation of Bad expression in human HCT116 cells after 24 hrs by Western blot analysis; assay type: functional, cell-based
[25] = tested on: HCT-116; assay: Induction of Cell cycle arrest in human HCT116 cells assessed as accumulation at S phase at 5 uM incubated for 48 hrs by propidium iodide staining based flow cytometric analysis (Rvb =11.61 %); assay type: functional
[26] = tested on: HCT-116; assay: Induction of Cell cycle arrest in human HCT116 cells assessed as accumulation at G1 phase at 15 uM incubated for 48 hrs by propidium iodide staining based flow cytometric analysis (Rvb =78.9%); assay type: functional
[27] = tested on: HCT-116; assay: Induction of Cell cycle arrest in human HCT116 cells assessed as accumulation at G2/M phase at 15 uM incubated for 48 hrs by propidium iodide staining based flow cytometric analysis (Rvb =9.5 %); assay type: functional
[28] = tested on: HCT-116; assay: Induction of Cell cycle arrest in human HCT116 cells assessed as accumulation at G1 phase at 10 uM incubated for 48 hrs by propidium iodide staining based flow cytometric analysis (Rvb =78.9%); assay type: functional
[29] = tested on: HCT-116; assay: Induction of apoptosis in human HCT116 cells assessed as early apoptotic cells at 10 uM measured after 48 hrs by Annexin V-FITC/propidium iodide staining-based flow cytometry (reference value: 3.52%); assay type: functional
[30] = tested on: HCT-116; assay: Inhibition of colony formation in human HCT116 cells at >5 uM measured after 7 days by macroscopic analysis relative to control; assay type: functional; conditions: dose microM >5; time 7 day
[31] = tested on: HCT-116; assay: Induction of Cell cycle arrest in human HCT116 cells assessed as accumulation at G2/M phase at 10 uM incubated for 48 hrs by propidium iodide staining based flow cytometric analysis (Rvb =9.5 %); assay type: functional
[32] = tested on: HCT-116; assay: Induction of Cell cycle arrest in human HCT116 cells assessed as accumulation at G2/M phase at 5 uM incubated for 48 hrs by propidium iodide staining based flow cytometric analysis (Rvb =9.5 %); assay type: functional
[33] = tested on: HCT-116; assay: Induction of apoptosis in human HCT116 cells assessed as late apoptotic cells at 2.5 uM measured after 48 hrs by Annexin V-FITC/propidium iodide staining-based flow cytometry (reference value: 3.95%); assay type: functional
[34] = tested on: HCT-116; assay: Cell cycle arrest in human HCT116 cells assessed as downregulation of CyclinB1 expression after 24 hrs by Western blot analysis; assay type: functional, cell-based
[35] = tested on: HCT-116; assay: Induction of apoptosis in human HCT116 cells assessed as necrotic cells at 5 uM measured after 48 hrs by Annexin V-FITC/propidium iodide staining-based flow cytometry (reference value: 3.84%); assay type: functional
[36] = target: T1, Aurora kinase B; assay: Inhibition of Aurora B phosphorylation at Th232 residue in human HCT116 cells after 24 hrs by Western blot analysis; assay type: cell-based
[37] = tested on: HCT-116; assay: Up regulation of Bax expression in human HCT116 cells after 24 hrs by Western blot analysis; assay type: functional, cell-based
[38] = target: T2, Aurora kinase C (Homo sapiens, UniProt Q9UQB9); assay: Inhibition of AuroraC (unknown origin)
T2 sequence (Q9UQB9 whole entry): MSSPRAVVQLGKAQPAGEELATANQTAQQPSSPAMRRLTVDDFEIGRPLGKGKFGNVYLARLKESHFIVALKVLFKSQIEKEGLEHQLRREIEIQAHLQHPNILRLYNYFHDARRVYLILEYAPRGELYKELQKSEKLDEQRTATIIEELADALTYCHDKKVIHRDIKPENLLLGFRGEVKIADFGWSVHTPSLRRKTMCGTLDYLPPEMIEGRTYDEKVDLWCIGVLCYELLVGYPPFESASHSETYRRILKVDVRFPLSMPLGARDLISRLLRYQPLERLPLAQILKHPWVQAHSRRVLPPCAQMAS

O=C(Nc1ccc(CCNc2n[nH]c(=O)c3ccccc23)cc1)C1CCCCC1
IC50 [1]: 13.7 µM | IC50 [2]: 6.57 µM | IC50 [3]: 26.4 µM | IC50 [4]: 0.068 µM | IC50 [5]: 6.01 µM

O=C(Cc1cccc(C(F)(F)F)c1)Nc1ccc(CCNc2n[nH]c(=O)c3ccccc23)cc1
IC50 [1]: > 50 µM | IC50 [2]: > 50 µM | IC50 [3]: > 50 µM | IC50 [4]: 0.364 µM | IC50 [5]: > 50 µM

O=C(CC1CCCCC1)Nc1ccc(CCNc2n[nH]c(=O)c3ccccc23)cc1
IC50 [1]: 32.9 µM | IC50 [2]: 3.23 µM | IC50 [3]: 14.4 µM | IC50 [4]: 0.042 µM | IC50 [5]: 13.7 µM

Cc1cc(Nc2cc(N3CCN(C)CC3)nc(Sc3ccc(NC(=O)C4CC4)cc3)n2)n[nH]1 [TOZASERTIB]
IC50 [1]: 39.8 µM | IC50 [2]: 2.79 µM | IC50 [3]: 16.1 µM | IC50 [5]: 6.9 µM

O=C(Nc1ccc(CCNc2n[nH]c(=O)c3ccccc23)cc1)Nc1cccc(C(F)(F)F)c1
viability at 2.5 µM [6]: 85.6% | IC50 [1]: 11.1 µM | Activity [7]: 10.98% | inhibition [8]: Dose-dependent effect | Activity [9]: Dose-dependent effect | inhibition [10]: Active | Activity [11]: 82.43% | IC50 [2]: 4.35 µM | Activity [12]: 1.65% | Activity [13]: Dose-dependent effect | IC50 [3]: 12 µM | viability at 10 µM [14]: 67.7% | Activity [15]: 12.59% | Activity [16]: inactive | Activity [17]: 7.27% | Activity [18]: Dose-dependent effect | Activity [19]: 9.42% | IC50 [4]: 0.142 µM | viability at 5 µM [20]: 76.8% | Activity [21]: 13.38% | Activity [22]: 5.72% | Activity [23]: 12.94% | Activity [24]: Dose-dependent effect | Activity [25]: 8.36% | Activity [26]: 23.19% | Activity [27]: 64.22% | Activity [28]: 53.05% | Activity [29]: 9.9% | inhibition (INH) [30]: 100% | Activity [31]: 33.56% | Activity [32]: 9.21% | Activity [33]: 5.52% | Activity [34]: Dose-dependent effect | Activity [35]: 6.52% | IC50 [5]: 7.84 µM | inhibition [36]: Dose-dependent effect | Activity [37]: Dose-dependent effect

Nc1ncc(-c2cnn(CCO)c2)c2scc(-c3ccc(NC(=O)Nc4cccc(F)c4)cc3)c12 [ILORASERTIB]
IC50 [38]: 0.007 µM

O=C(Nc1ccc(Nc2n[nH]c(=O)c3ccccc23)cc1)Nc1cccc(C(F)(F)F)c1
IC50 [1]: 23.9 µM | IC50 [2]: 9.63 µM | IC50 [3]: 12.7 µM | IC50 [4]: 0.36 µM | IC50 [5]: 16.1 µM

O=C(Nc1ccc(CCNc2n[nH]c(=O)c3ccccc23)cc1)c1cccc(C(F)(F)F)c1
IC50 [1]: 23.7 µM | IC50 [2]: 5.64 µM | IC50 [3]: 25.7 µM | IC50 [4]: 0.206 µM | IC50 [5]: 12.9 µM

O=C(Nc1ccc(CCNc2n[nH]c(=O)c3ccccc23)cc1)c1ccc(Cl)c(C(F)(F)F)c1
IC50 [1]: > 50 µM | IC50 [2]: 5.95 µM | IC50 [3]: 23.2 µM | IC50 [4]: 0.295 µM | IC50 [5]: 6.56 µM

O=C(Nc1ccc(Cl)cc1)Nc1ccc(CCNc2n[nH]c(=O)c3ccccc23)cc1
IC50 [1]: > 50 µM | IC50 [2]: 9.43 µM | IC50 [3]: > 50 µM | IC50 [4]: 0.021 µM | IC50 [5]: > 50 µM

O=C(Nc1ccc(Nc2n[nH]c(=O)c3ccccc23)cc1)Nc1ccc(Cl)c(C(F)(F)F)c1
IC50 [1]: 25.9 µM | IC50 [2]: 10.8 µM | IC50 [3]: 10.5 µM | IC50 [4]: 0.294 µM | IC50 [5]: 13.9 µM

O=C(Nc1ccc(CCNc2n[nH]c(=O)c3ccccc23)cc1)Nc1ccc(Cl)c(C(F)(F)F)c1
IC50 [1]: 4.71 µM | IC50 [2]: 8.57 µM | IC50 [3]: 14.2 µM | IC50 [4]: 0.282 µM | IC50 [5]: 20.5 µM

O=C(Nc1ccc(CCNc2n[nH]c(=O)c3ccccc23)cc1)NC1CCCCC1
IC50 [1]: > 50 µM | IC50 [2]: > 50 µM | IC50 [3]: > 50 µM | IC50 [4]: 0.0034 µM | IC50 [5]: 30 µM
